Test results as given in patent US4582934A, “Alpha,alpha-dimethylphenylacetanilide derivatives, process for production thereof, and use thereof as insecticide” (Yashima Chemical Industrial Co., Ltd., priority 1983, dated 1986).
≈ marks a conversion by molar mass, not a printed value. Like-named read-outs stand apart in the source and are kept apart here.

What was measured:
Type in all cases: in vivo
[1] = system: Resistant Plutella xylostella; test: Indoor test on 3rd-instar larvae of Plutella xylostella, resistant insects (cabbage leaf dip); conditions: foliar, read-out: LC50 (50% lethal concentration)
Procedure: (§1) Indoor test on 3rd-instar larvae of Plutella xylostella:
(§2) A wettable powder prepared as in Formulation Example 2 was diluted to a predetermined concentration. Cabbage leaves were dipped for 10 seconds in the resulting dilution and then air dried. The leaves were put into a polyvinyl chloride cup having a capacity of 90 ml together with 3rd-instar larvae of Plutella xylostella. The cup was left to stand in a constant temperature chamber kept at 25° C., and 72 hours later, the number of dead insects was examined. For each test area, the test was repeated twice, and 20 insects were used in each area. The ratio of the dead insects was calculated, and LC50 (50% lethal concentration) values of the test compounds were determined by the method of Bliss.
(§3) The sensitive Plutella xylostella insects in the table were those bred through generations at the Laboratory of Yashima Chemical Industrial Co., Ltd. The resistant ones were hunted at Tsumakoi-mura, Gunma-ken, Japan.

[2] = system: Sensitive Plutella xylostella; test: Indoor test on 3rd-instar larvae of Plutella xylostella, sensitive insects (cabbage leaf dip); conditions: foliar, read-out: LC50 (50% lethal concentration)
Procedure: as §1, §2, §3

[3] = system: Resistant Plutella xylostella; test: Field test on Plutella xylostella (cabbage, spray); conditions: larvae per 10 heads of cabbage, not sprayed = 100
Procedure: Field test on Plutella xylostella:
On predetermined dates, the number of larvae per 10 heads of cabbage was examined, and the corrected density indices of the test compounds were calculated in accordance with the following equation. [formula]

[4] = system: Thrips palmi; test: Test on Thrips palmi (potted eggplants, spray); conditions: eggplants in pots, not sprayed = 100
Procedure: An emulsifiable emulsion prepared as in Formulation Example 3 was diluted with water to a predetermined concentration. The dilution was sprayed on eggplants which were grown in pots and on which Thrips palmi was parasitic, so that the dilution fully dripped on the plant leaves. The number of dead insects was examined at predetermined dates, and the corrected density indices of the test compounds were calculated. For each area, the test was repeated three times.

CCCCN(C(=O)C(C)(C)c1ccc(Cl)cc1)c1ccc(Cl)cc1 [compound 9]
LC50 ([1]; Plutella xylostella, 72 h): 365 µg/mL (≈ 1000 µM) | LC50 ([2]; Plutella xylostella, 72 h): 372 µg/mL (≈ 1020 µM)

COP(=O)(OC)OC=C(Cl)Cl [DDVP, 2,2-dichlorovinyl dimethyl phosphate, reference compound]
LC50 ([1]; resistant Plutella xylostella, 3rd-instar larvae, 72 hours, 25° C., wettable powder dilution, method of Bliss): 1020 µg/mL | LC50 ([2]; sensitive Plutella xylostella, 3rd-instar larvae, 72 hours, 25° C., wettable powder dilution, method of Bliss): 103 µg/mL | Corrected density index After 3 days ([3]; 500 ppm): 15 | Corrected density index After 7 days ([3]; 500 ppm): 52 | Corrected density index After 14 days ([3]; 500 ppm): 86

CC(C)(C(=O)Nc1ccc(C(F)(F)F)cc1)c1ccc(Cl)cc1 [Compound No. 4]
Corrected density index After 1 day ([4]; 250 ppm): 19 | Corrected density index After 3 days ([4]; 250 ppm): 8 | Corrected density index After 7 days ([4]; 250 ppm): 11 | Corrected density index After 1 day ([4]; 500 ppm): 12 | Corrected density index After 3 days ([4]; 500 ppm): 4 | Corrected density index After 7 days ([4]; 500 ppm): 6 | LC50 ([1]; Plutella xylostella, 72 h): 96 µg/mL (≈ 281 µM) | LC50 ([2]; Plutella xylostella, 72 h): 95 µg/mL (≈ 278 µM) | Corrected density index After 3 days ([3]; 250 ppm): 7 | Corrected density index After 7 days ([3]; 250 ppm): 1 | Corrected density index After 14 days ([3]; 250 ppm): 0

CC(C)(C(=O)Nc1ccc(Cl)cc1)c1ccc(F)cc1 [compound 11]
LC50 ([1]; Plutella xylostella, 72 h): 111 µg/mL (≈ 380 µM) | LC50 ([2]; Plutella xylostella, 72 h): 107 µg/mL (≈ 367 µM)

CC(C)(C(=O)Nc1ccc(C(F)(F)F)cc1)c1ccccc1F [compound 17]
LC50 ([1]; Plutella xylostella, 72 h): 256 µg/mL (≈ 787 µM) | LC50 ([2]; Plutella xylostella, 72 h): 281 µg/mL (≈ 864 µM)

CCN(C(=O)C(C)(C)c1ccc(Cl)cc1)c1ccc(Cl)cc1 [Compound No. 7]
Corrected density index After 1 day ([4]; 250 ppm): 16 | Corrected density index After 3 days ([4]; 250 ppm): 9 | Corrected density index After 7 days ([4]; 250 ppm): 13 | Corrected density index After 1 day ([4]; 500 ppm): 10 | Corrected density index After 3 days ([4]; 500 ppm): 2 | Corrected density index After 7 days ([4]; 500 ppm): 3 | LC50 ([1]; Plutella xylostella, 72 h): 53 µg/mL (≈ 158 µM) | LC50 ([2]; Plutella xylostella, 72 h): 51 µg/mL (≈ 152 µM) | Corrected density index After 3 days ([3]; 250 ppm): 4 | Corrected density index After 7 days ([3]; 250 ppm): 0 | Corrected density index After 14 days ([3]; 250 ppm): 0

CN(C(=O)C(C)(C)c1ccc(Cl)cc1)c1ccc(Cl)cc1 [compound 6]
LC50 ([1]; Plutella xylostella, 72 h): 60 µg/mL (≈ 186 µM) | LC50 ([2]; Plutella xylostella, 72 h): 61 µg/mL (≈ 189 µM)

CC(C)(C(=O)Nc1ccc(Cl)cc1)c1ccc(Cl)cc1 [compound 2, alpha,alpha-dimethyl-p-chlorophenylaceto-p-chloranilide]
Corrected density index After 1 day ([4]; 250 ppm): 16 | Corrected density index After 3 days ([4]; 250 ppm): 14 | Corrected density index After 7 days ([4]; 250 ppm): 14 | Corrected density index After 1 day ([4]; 500 ppm): 20 | Corrected density index After 3 days ([4]; 500 ppm): 10 | Corrected density index After 7 days ([4]; 500 ppm): 12 | LC50 ([1]; Plutella xylostella, 72 h): 110 µg/mL (≈ 357 µM) | LC50 ([2]; Plutella xylostella, 72 h): 101 µg/mL (≈ 328 µM) | Corrected density index After 3 days ([3]; 250 ppm): 10 | Corrected density index After 7 days ([3]; 250 ppm): 5 | Corrected density index After 14 days ([3]; 250 ppm): 2

CC(C)(C(=O)Nc1ccc(F)cc1)c1ccc(Cl)cc1Cl [compound 20]
LC50 ([1]; Plutella xylostella, 72 h): 128 µg/mL (≈ 392 µM) | LC50 ([2]; Plutella xylostella, 72 h): 122 µg/mL (≈ 374 µM)

CCCN(C(=O)C(C)(C)c1ccc(Cl)cc1)c1ccc(Cl)cc1 [compound 8]
LC50 ([1]; Plutella xylostella, 72 h): 204 µg/mL (≈ 582 µM) | LC50 ([2]; Plutella xylostella, 72 h): 198 µg/mL (≈ 565 µM)

CC(C)(C(=O)Nc1ccc(F)cc1)c1ccc(Cl)cc1 [compound 1]
LC50 ([1]; Plutella xylostella, 72 h): 123 µg/mL (≈ 422 µM) | LC50 ([2]; Plutella xylostella, 72 h): 126 µg/mL (≈ 432 µM)

CCN(C(=O)C(C)(C)c1ccc(Cl)cc1)c1ccc(Br)cc1 [compound 10, alpha,alpha-dimethyl-p-chlorophenylaceto-N-ethyl-p-bromanilide]
Corrected density index After 1 day ([4]; 250 ppm): 12 | Corrected density index After 3 days ([4]; 250 ppm): 12 | Corrected density index After 7 days ([4]; 250 ppm): 11 | Corrected density index After 1 day ([4]; 500 ppm): 7 | Corrected density index After 3 days ([4]; 500 ppm): 1 | Corrected density index After 7 days ([4]; 500 ppm): 4 | LC50 ([1]; Plutella xylostella, 72 h): 46 µg/mL (≈ 121 µM) | LC50 ([2]; Plutella xylostella, 72 h): 48 µg/mL (≈ 126 µM) | Corrected density index After 3 days ([3]; 250 ppm): 5 | Corrected density index After 7 days ([3]; 250 ppm): 0 | Corrected density index After 14 days ([3]; 250 ppm): 0

COP(=O)(NC(C)=O)SC (centres unmarked) [Acephate, O,S--dimethyl N--acetylphosphoramidothiolate, reference compound]
LC50 ([1]; Plutella xylostella, 72 h): 878 µg/mL (≈ 4790 µM) | LC50 ([2]; Plutella xylostella, 72 h): 178 µg/mL (≈ 972 µM) | Corrected density index After 3 days ([3]; 500 ppm): 8 | Corrected density index After 7 days ([3]; 500 ppm): 12 | Corrected density index After 14 days ([3]; 500 ppm): 15

CC(C)(C(=O)Nc1ccc(Cl)cc1)c1ccccc1F [compound 16]
LC50 ([1]; Plutella xylostella, 72 h): 331 µg/mL (≈ 1130 µM) | LC50 ([2]; Plutella xylostella, 72 h): 320 µg/mL (≈ 1100 µM)

CC(C)(C(=O)Nc1ccc(Cl)cc1)c1ccc(Br)cc1 [compound 15]
LC50 ([1]; Plutella xylostella, 72 h): 129 µg/mL (≈ 366 µM) | LC50 ([2]; Plutella xylostella, 72 h): 137 µg/mL (≈ 388 µM)

CCC(C)c1ccccc1OC(=O)NC (centres unmarked) [BPMC, 2sec. butylphenylN--methyl carbamate, reference compound]
Corrected density index After 1 day ([4]; 250 ppm): 7 | Corrected density index After 3 days ([4]; 250 ppm): 35 | Corrected density index After 7 days ([4]; 250 ppm): 57 | Corrected density index After 1 day ([4]; 500 ppm): 2 | Corrected density index After 3 days ([4]; 500 ppm): 15 | Corrected density index After 7 days ([4]; 500 ppm): 45

CCN(C(=O)C(C)(C)c1ccc(F)cc1)c1ccc(Br)cc1 [compound 14]
LC50 ([1]; Plutella xylostella, 72 h): 93 µg/mL (≈ 255 µM) | LC50 ([2]; Plutella xylostella, 72 h): 88 µg/mL (≈ 242 µM)

CCN(C(=O)C(C)(C)c1ccc(F)cc1)c1ccc(Cl)cc1 [compound 13]
LC50 ([1]; Plutella xylostella, 72 h): 73 µg/mL (≈ 228 µM) | LC50 ([2]; Plutella xylostella, 72 h): 74 µg/mL (≈ 231 µM)

CC(C)(C(=O)Nc1ccc(Cl)cc1)c1ccc(Cl)cc1Cl [compound 19]
LC50 ([1]; Plutella xylostella, 72 h): 106 µg/mL (≈ 309 µM) | LC50 ([2]; Plutella xylostella, 72 h): 119 µg/mL (≈ 347 µM)

CC(C)(C(=O)Nc1ccc(Br)cc1)c1ccc(Cl)cc1 [Compound No. 3]
Corrected density index After 1 day ([4]; 250 ppm): 16 | Corrected density index After 3 days ([4]; 250 ppm): 8 | Corrected density index After 7 days ([4]; 250 ppm): 14 | Corrected density index After 1 day ([4]; 500 ppm): 9 | Corrected density index After 3 days ([4]; 500 ppm): 3 | Corrected density index After 7 days ([4]; 500 ppm): 3 | LC50 ([1]; Plutella xylostella, 72 h): 51 µg/mL (≈ 145 µM) | LC50 ([2]; Plutella xylostella, 72 h): 57 µg/mL (≈ 162 µM) | Corrected density index After 3 days ([3]; 250 ppm): 7 | Corrected density index After 7 days ([3]; 250 ppm): 2 | Corrected density index After 14 days ([3]; 250 ppm): 3

CC(C)(C(=O)Nc1ccc(C#N)cc1)c1ccc(Cl)cc1 [compound 5]
LC50 ([1]; Plutella xylostella, 72 h): 90 µg/mL (≈ 301 µM) | LC50 ([2]; Plutella xylostella, 72 h): 97 µg/mL (≈ 325 µM)

CC(C)(C(=O)Nc1ccc(C(F)(F)F)cc1)c1ccc(F)cc1 [compound 12]
LC50 ([1]; Plutella xylostella, 72 h): 110 µg/mL (≈ 338 µM) | LC50 ([2]; Plutella xylostella, 72 h): 95 µg/mL (≈ 292 µM)

CN(C(=O)C(C)(C)c1ccccc1F)c1ccc(Cl)cc1 [compound 18]
LC50 ([1]; Plutella xylostella, 72 h): 211 µg/mL (≈ 690 µM) | LC50 ([2]; Plutella xylostella, 72 h): 213 µg/mL (≈ 697 µM)
